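Assay format: 96-well plates, 48-hour exposure. GI50 is the concentration that inhibits growth by half. TGI: total growth inhibition.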
Key:
Experiment in all cases: NCI-60 cell line screen, 48 h
BT-549 breast = tested on: BT-549 breast
HL-60(TB) leukemia = tested on: HL-60(TB) leukemia
HOP-62 NSCLC = tested on: HOP-62 NSCLC
IGROV1 ovarian = tested on: IGROV1 ovarian
NCI-H226 lung = tested on: NCI-H226 lung
SF-268 CNS = tested on: SF-268 CNS
SF-295 CNS = tested on: SF-295 CNS
SK-MEL-28 melanoma = tested on: SK-MEL-28 melanoma
SW-620 colon = tested on: SW-620 colon
T-47D breast = tested on: T-47D breast

Structure (SMILES): O=C(NCc1ccc(Cn2c(=O)sn(-c3ccccc3)c2=O)cc1)OCc1ccc2c(Br)cc(Br)c(O)c2n1
- GI50 (BT-549 breast): 0.614 µM
- TGI (BT-549 breast): 1.99 µM
- GI50 (HL-60(TB) leukemia): 0.659 µM
- TGI (HL-60(TB) leukemia): > 20.3 µM
- GI50 (HOP-62 NSCLC): 1.52 µM
- TGI (HOP-62 NSCLC): 3.45 µM
- GI50 (IGROV1 ovarian): 0.428 µM
- TGI (IGROV1 ovarian): 1.58 µM
- GI50 (NCI-H226 lung): 1.02 µM
- TGI (NCI-H226 lung): 2.41 µM
- GI50 (SF-268 CNS): 1.46 µM
- TGI (SF-268 CNS): 2.88 µM
- GI50 (SF-295 CNS): 1.6 µM
- TGI (SF-295 CNS): 3.06 µM
- GI50 (SK-MEL-28 melanoma): 1.17 µM
- TGI (SK-MEL-28 melanoma): 2.4 µM
- GI50 (SW-620 colon): 0.246 µM
- TGI (SW-620 colon): 0.649 µM
- GI50 (T-47D breast): 1.71 µM
- TGI (T-47D breast): 5.66 µM

Structure (SMILES): CCN(C(=O)c1cc(F)ccc1Oc1cncnc1N1CC2(CCN(CC3CCC(NS(=O)(=O)CC)CC3)CC2)C1)C(C)C (stereo not given)
- GI50 (BT-549 breast): > 100 µM
- TGI (BT-549 breast): > 100 µM
- GI50 (HL-60(TB) leukemia): > 100 µM
- TGI (HL-60(TB) leukemia): > 100 µM
- GI50 (HOP-62 NSCLC): > 100 µM
- TGI (HOP-62 NSCLC): > 100 µM
- GI50 (IGROV1 ovarian): > 100 µM
- TGI (IGROV1 ovarian): > 100 µM
- GI50 (NCI-H226 lung): > 100 µM
- TGI (NCI-H226 lung): > 100 µM
- GI50 (SF-268 CNS): > 100 µM
- TGI (SF-268 CNS): > 100 µM
- GI50 (SF-295 CNS): > 100 µM
- TGI (SF-295 CNS): > 100 µM
- GI50 (SK-MEL-28 melanoma): > 100 µM
- TGI (SK-MEL-28 melanoma): > 100 µM
- GI50 (SW-620 colon): > 100 µM
- TGI (SW-620 colon): > 100 µM
- GI50 (T-47D breast): > 100 µM
- TGI (T-47D breast): > 100 µM

Structure (SMILES): COc1cc2c3c(n(CCCI)c(=O)c2cc1OC)-c1cc2c(cc1C3=O)OCO2
- GI50 (BT-549 breast): 1.82 µM
- TGI (BT-549 breast): 9.44 µM
- GI50 (HL-60(TB) leukemia): 1.08 µM
- TGI (HL-60(TB) leukemia): > 100 µM
- GI50 (HOP-62 NSCLC): 4.45 µM
- TGI (HOP-62 NSCLC): > 100 µM
- GI50 (IGROV1 ovarian): 5.24 µM
- TGI (IGROV1 ovarian): > 100 µM
- GI50 (NCI-H226 lung): 2.05 µM
- TGI (NCI-H226 lung): 7.88 µM
- GI50 (SF-268 CNS): 1.34 µM
- TGI (SF-268 CNS): > 100 µM
- GI50 (SF-295 CNS): 0.776 µM
- TGI (SF-295 CNS): > 100 µM
- GI50 (SK-MEL-28 melanoma): 52.1 µM
- TGI (SK-MEL-28 melanoma): > 100 µM
- GI50 (SW-620 colon): 3.17 µM
- TGI (SW-620 colon): > 100 µM
- GI50 (T-47D breast): > 100 µM
- TGI (T-47D breast): > 100 µM

Structure (SMILES): Cc1occc1C(=S)Nc1ccc(Cl)c(C(=O)OC(C)C2CC2)c1 (stereo not given)
- TGI (BT-549 breast): 54.5 µM
- TGI (HL-60(TB) leukemia): 54.1 µM
- TGI (HOP-62 NSCLC): 57.7 µM
- TGI (IGROV1 ovarian): 35.2 µM
- TGI (NCI-H226 lung): 33.6 µM
- TGI (SF-268 CNS): 59.3 µM
- TGI (SF-295 CNS): 39 µM
- TGI (SK-MEL-28 melanoma): > 100 µM
- TGI (SW-620 colon): > 100 µM
- TGI (T-47D breast): > 100 µM

Structure (SMILES): CCC1CCc2nc3sc(C(=O)Nc4cccc(F)c4)c(N)c3cc2C1 (stereo not given)
- GI50 (BT-549 breast): > 100 µM
- TGI (BT-549 breast): > 100 µM
- GI50 (HL-60(TB) leukemia): 0.343 µM
- TGI (HL-60(TB) leukemia): > 100 µM
- GI50 (HOP-62 NSCLC): > 100 µM
- TGI (HOP-62 NSCLC): > 100 µM
- GI50 (IGROV1 ovarian): > 100 µM
- TGI (IGROV1 ovarian): > 100 µM
- GI50 (NCI-H226 lung): > 100 µM
- TGI (NCI-H226 lung): > 100 µM
- GI50 (SF-268 CNS): > 100 µM
- TGI (SF-268 CNS): > 100 µM
- GI50 (SF-295 CNS): 0.901 µM
- TGI (SF-295 CNS): > 100 µM
- GI50 (SK-MEL-28 melanoma): > 100 µM
- TGI (SK-MEL-28 melanoma): > 100 µM
- GI50 (SW-620 colon): 0.707 µM
- TGI (SW-620 colon): > 100 µM
- GI50 (T-47D breast): > 100 µM
- TGI (T-47D breast): > 100 µM

Structure (SMILES): C[C@@H](CO)[C@@H]1CCC=C2CC[C@]3(C)[C@H](CC[C@@H]4[C@@]5(C)CCCNC(C)(C)[C@@H]5CC[C@]43C)[C@H]21
- GI50 (BT-549 breast): 5.11 µM
- TGI (BT-549 breast): 24.9 µM
- GI50 (HL-60(TB) leukemia): 1.98 µM
- TGI (HL-60(TB) leukemia): 4.54 µM
- GI50 (HOP-62 NSCLC): 2.08 µM
- TGI (HOP-62 NSCLC): 4.21 µM
- GI50 (IGROV1 ovarian): 1.78 µM
- TGI (IGROV1 ovarian): 3.41 µM
- GI50 (NCI-H226 lung): 14.6 µM
- TGI (NCI-H226 lung): 35.3 µM
- GI50 (SF-268 CNS): 4.48 µM
- TGI (SF-268 CNS): 19.5 µM
- GI50 (SF-295 CNS): 1.66 µM
- TGI (SF-295 CNS): 3.11 µM
- GI50 (SK-MEL-28 melanoma): 1.72 µM
- TGI (SK-MEL-28 melanoma): 3.45 µM
- GI50 (SW-620 colon): 1.86 µM
- TGI (SW-620 colon): 3.62 µM
- GI50 (T-47D breast): 2.38 µM
- TGI (T-47D breast): 7.77 µM

Structure (SMILES): CCNC(=O)c1cc2c(-c3cc(C(C)(C)O)ccc3Oc3c(C)cc(F)cc3C)cn(C)c(=O)c2[nH]1
- GI50 (BT-549 breast): 2.01 µM
- TGI (BT-549 breast): 11.4 µM
- GI50 (HL-60(TB) leukemia): 0.393 µM
- TGI (HL-60(TB) leukemia): 4.88 µM
- GI50 (HOP-62 NSCLC): 0.914 µM
- TGI (HOP-62 NSCLC): 13.7 µM
- GI50 (IGROV1 ovarian): 1.39 µM
- TGI (IGROV1 ovarian): 11.2 µM
- GI50 (NCI-H226 lung): 2.64 µM
- TGI (NCI-H226 lung): 14.9 µM
- GI50 (SF-268 CNS): 3.58 µM
- TGI (SF-268 CNS): 18.6 µM
- GI50 (SF-295 CNS): 2.19 µM
- TGI (SF-295 CNS): 11 µM
- GI50 (SK-MEL-28 melanoma): 4.37 µM
- TGI (SK-MEL-28 melanoma): 17.9 µM
- GI50 (SW-620 colon): 3.56 µM
- TGI (SW-620 colon): 21 µM
- GI50 (T-47D breast): 1.08 µM
- TGI (T-47D breast): 18 µM

Structure (SMILES): COc1cc(OC)c(/C=C/c2cnc3ccccc3n2)c(OC)c1
- TGI (BT-549 breast): > 10 µM
- TGI (HL-60(TB) leukemia): > 10 µM
- TGI (HOP-62 NSCLC): > 10 µM
- TGI (IGROV1 ovarian): > 10 µM
- TGI (NCI-H226 lung): > 10 µM
- TGI (SF-268 CNS): > 10 µM
- TGI (SF-295 CNS): > 10 µM
- TGI (SK-MEL-28 melanoma): > 10 µM
- TGI (SW-620 colon): > 10 µM
- TGI (T-47D breast): > 10 µM

Structure (SMILES): N#Cc1c(N)nc(N2CCOCC2)c(C#N)c1-c1cccnc1
- GI50 (BT-549 breast): > 100 µM
- TGI (BT-549 breast): > 100 µM
- GI50 (HL-60(TB) leukemia): 95.6 µM
- TGI (HL-60(TB) leukemia): > 100 µM
- GI50 (HOP-62 NSCLC): 24.9 µM
- TGI (HOP-62 NSCLC): > 100 µM
- GI50 (IGROV1 ovarian): 17.2 µM
- TGI (IGROV1 ovarian): 44.8 µM
- GI50 (NCI-H226 lung): 81.8 µM
- TGI (NCI-H226 lung): > 100 µM
- GI50 (SF-268 CNS): > 100 µM
- TGI (SF-268 CNS): > 100 µM
- GI50 (SF-295 CNS): 44.4 µM
- TGI (SF-295 CNS): > 100 µM
- GI50 (SK-MEL-28 melanoma): > 100 µM
- TGI (SK-MEL-28 melanoma): > 100 µM
- GI50 (SW-620 colon): > 100 µM
- TGI (SW-620 colon): > 100 µM
- GI50 (T-47D breast): 34 µM
- TGI (T-47D breast): 66.7 µM

Structure (SMILES): Nc1nc(-c2ccc(F)cc2)c(-c2ccc3ncccc3n2)s1
- GI50 (BT-549 breast): 16.1 µM
- TGI (BT-549 breast): > 25 µM
- GI50 (HL-60(TB) leukemia): > 25 µM
- TGI (HL-60(TB) leukemia): > 25 µM
- GI50 (HOP-62 NSCLC): 24.9 µM
- TGI (HOP-62 NSCLC): > 25 µM
- GI50 (IGROV1 ovarian): 5.44 µM
- TGI (IGROV1 ovarian): > 20.9 µM
- GI50 (NCI-H226 lung): 11.8 µM
- TGI (NCI-H226 lung): > 25 µM
- GI50 (SF-268 CNS): 16.5 µM
- TGI (SF-268 CNS): > 25 µM
- GI50 (SF-295 CNS): > 21 µM
- TGI (SF-295 CNS): > 25 µM
- GI50 (SK-MEL-28 melanoma): > 25 µM
- TGI (SK-MEL-28 melanoma): > 25 µM
- GI50 (SW-620 colon): > 25 µM
- TGI (SW-620 colon): > 25 µM
- GI50 (T-47D breast): 4.32 µM
- TGI (T-47D breast): > 25 µM

From PubChem BioAssay (NCI)
